This is an account of results in patent US8816102B2, “Compounds” (Givaudan S.A., priority 2009, dated 2014).

Holding throughout (set-up): species or system human
Assay [1] in a line: Sensory panel tasting of 0.3% NaCl solution with and without compound. Particulars: 0.3% NaCl and 10 ppm compound; reference solution A (0.3% NaCl): salty; trained panel of 20 women. The procedure:
(§1) Two solutions were prepared:
A a solution of 0.3% NaCl
B a solution of 0.3% NaCl and 10 ppm Example 1 compound
(§2) The samples were tasted by a trained sensory panel composed of 20 women aged between 30 and 60.
B a solution of 0.3% NaCl and 10 ppm Example 5 compound.

The nature of assay [2]: Use in tomato soup, tasted by flavourists. Particulars: tomato soup containing 10 ppm compound; 4 flavourists. The procedure: A tomato soup mix was prepared from 9.4 g of sodium chloride, 1 g of mono sodium glutamate, 0.08 g ribonucleotides (ex yeast), 32 g of tomato powder (ex Spreda), 25.1 g of glucose, 21 g of starch (Ultrasperse 5 ex National Starch), 5 g of palm fat powder, 3 g of yeast powder, 1 g on onion powder, 0.15 g of carrot powder, 0.05 g of ground white pepper, 0.3 g celery extract powder, 0.05 g of ground laurel leaf powder, and 1.85 g of sucrose. 25 G of the well mixed ingredients was added to 250 g of boiling water and stirred until completely dissolved.
The reference soup was compared with a batch of the same soup containing 10 ppm of N-(2-hydroxyethyl)-2-(benzo[1,3]dioxol-5-yl)-2-oxoacetamide as prepared in example 2.

Assay [3] is described as follows: Use in potato chips, tasted by trained sensory panel. The procedure: Plain potato chips were prepared.
One part was flavoured with 1.2% sodium chloride (sample A)
One part was flavoured with 1.2% sodium chloride and 0.3% MSG (sample b)
One part was flavoured with 1.2% sodium chloride and 2.5 ppm N-(4-heptyl)-2-(benzo[1,3]dioxol-5-yl)-2-oxo-acetamide as prepared in example 3 (sample C).
as §2

A short description of assay [4]: Use in tomato ketchup, tasted by flavourists. Particulars: 4 flavourists. The procedure: A tomato ketchup was prepared from 19% tomato paste (28-30% dry weight), 8% of vinegar (15%), 3% of sodium chloride, 20% of sugar and 50% of water.
To one half of the batch was added 2 ppm of N-(4-heptyl) 2-(4-hydroxy-3-methyxophenol)-2-oxoacetamide (Example 5)
A batch of tomato ketchup was prepared as described in Example 12. To one half of the batch was added 20 ppm N-(4-hepthyl) 4-hydroxy-3-methoxy-mandelic amide as prepared in Example 7.

Assay [5] can be described thus: Sensory panel tasting of 0.3% NaCl and 0.03% MSG solution with and without compound. Particulars: 0.3% NaCl, reference solution A: salty, umami, trained panel of 20 women. The procedure: as §1
A a solution of 0.3% NaCl and 0.03% MSG
B a solution of 0.3% NaCl and 0.03% MSG and 10 ppm Example 6 compound.
as §2
A a solution of 0.3% NaCl, 0.03% MSG
B a solution of 0.3% NaCl, 0.03% MSG and 10 ppm N-heptyl-2-oxo-3-phenylpropionamide as prepared in example 9.
B a solution of 0.3% NaCl, 0.03% MSG and 1 ppm N-(4-heptyl)-2-oxo-3-phenylpropionamide as prepared in example 10.
B a solution of 0.3% NaCl, 0.03% MSG and 1 ppm N-heptyl 3-methoxy-4-hydroxy-mandelic acid as prepared in Example 8.

The structures appear in SMILES notation.

For the compound `O=C(NCCO)C(=O)c1ccccc1` [Example 1, N-(2-hydroxyethyl)-2-oxo-2-phenylacetamide], in assay [1], the “taste description of solution B” value is reported as “more salty, salivating”.

As for `O=C(NCCO)C(=O)c1ccc2c(c1)OCO2` [Example 2, 2-(benzo[d][1.3]dioxol-5-yl)-N-(2-hydroxyethyl)-2-oxoacetamide], the “taste of test soup compared with base soup” value in assay [2] is “more umami, was more lingering and was more complex”.

`CCCC(CCC)NC(=O)C(=O)c1ccc2c(c1)OCO2` [Example 3, 2-(benzo[d][1,3]dioxol-5-yl)-N-(heptan-4-yl)-2-oxoacetamide]: the “taste description of potato chips sample C” value in assay [3] (1.2% sodium chloride and 2.5 ppm compound, sample A (1.2% sodium chloride): salty) is “salty, umami, long lasting, savoury, bouillon”. In addition, in assay [3] (sample C (1.2% sodium chloride and 2.5 ppm compound) versus samples A and B), the panel preference result was “preferred over the other two samples”. Also, the off-note observed result in assay [3] (sample C, 1.2% sodium chloride and 2.5 ppm compound) is given as “slight bitter off-note”.

Take `CCCCCCCNC(=O)C(=O)c1ccc(O)c(OC)c1` [Example 5, N-heptyl-2-(4-hydroxy-3-methoxyphenyl)-2-oxoacetamide]: in assay [4] (tomato ketchup with 2 ppm compound), the “taste of test ketchup compared with base ketchup” value was “clearly more umami, more sweet and more full/complex”. The “taste description of solution B” value in assay [1] was “more salty, salivating, lingering”.

Consider `CC(=O)C(=O)NCCO` [Example 6, N-(2-hydroxyethyl)-2-oxopropanamide], for which, in assay [5] (0.03% MSG and 10 ppm compound), the “taste description of solution B” value is “more salty, more umami”.

For the compound `CCCC(CCC)NC(=O)C(O)c1ccc(O)c(OC)c1` (stereo not shown) [Example 7, N-(heptan-4-yl)-2-hydroxy-2-(4-hydroxy-3-methoxyphenyl)acetamide], the “taste of test ketchup compared with base ketchup” value in assay [4] (tomato ketchup with 20 ppm compound) is “more umami, more bouillon-like and more full/complex”.

On to `CCCCCCCNC(=O)C(O)c1ccc(O)c(OC)c1` (stereo not shown) [Example 8, N-heptyl-2-hydroxy-2-(4-hydroxy-3-methoxyphenyl)acetamide], for which the “taste description of solution B” value in assay [5] (0.03% MSG and 1 ppm compound) is “salty, more umami, slightly pungent”.

Consider `CCCCCCCNC(=O)C(=O)Cc1ccccc1` [Example 9, N-heptyl-2-oxo-3-phenylpropanamide], for which the “taste description of solution B” value in assay [5] (0.03% MSG and 10 ppm compound) is recorded as “salty, stronger umami, more bouillon-like”.

Regarding `CCCC(CCC)NC(=O)C(=O)Cc1ccccc1` [Example 10, N-(heptan-4-yl)-2-oxo-3-phenylpropanamide], the “taste description of solution B” value in assay [5] (0.03% MSG and 1 ppm compound) is “salty, more umami, more bouillon-like, slightly tingling”.

As for `N[C@@H](CCC(=O)O)C(=O)[O-].[Na+]` [MSG, monosodium glutamate, reference compound], the “taste description of potato chips sample B” value in assay [3] (1.2% sodium chloride and 0.3% MSG) is “salty and umami”.
